Data reported in patent publication US10945931B2, “Shaping keratin fibres using dialdehyde compounds” (The Procter & Gamble Company, priority 2015, dated 2021).

test: Hair straightening efficacy on hair switches, expert grading after wash-and-dry cycles; details: 10% treatment, QSP water buffered at pH 10; flat iron 232° C., 8 passes; after 10 wash cycles; 0-10 scale (0 curly, 10 very straight)
Procedure: The hair straightening efficacy is tested for the crosslinking compositions described herein. Switches of low lift naturally curly hair are employed. These are shampooed with a Pantene clarifying shampoo to ensure the hair is in a clean state with no residues that could affect the end result. The switches are then rinsed. Excess water is removed from the hair by wringing out the switches. The switches are treated with a crosslinking composition; QSP water buffered at pH 10. These ingredients are mixed on a spinner plate for 30 mins. 0.5 g of crosslinking composition per 1 g hair is employed. The crosslinking composition is left on the hair for 30 minutes. After this time, the hair is blow dried and brushed. The switches are then mechanically straightened with a flat iron (at 450° F. [232° C.] with 8 passes.
The switches are then imaged. To simulate durability, the switches are then given one wash-and-dry cycle. One wash-and-dry cycle involves shampooing with a Hairtrition shampoo (Hairtrition Color Protect sulfate-free shampoo from Zotos), rinsing and then drying in a hot box. Once dry the switches are imaged again. The switches are then given 9 further wash-and-dry cycles. Once dry the switches are imaged again. An expert grader gives the images of the switches a score on a 0-10 scale. The scale is a standard scale set as curly hair having 4-5 nodes of curls is a score of 0 and very straight hair is a 10. Thus, the switches are compared to a normal state of hair. Using an expert grader is reliable because the grader is trained on measuring/scaling the configuration of the hair from straight to curly in a consistent way. Numeric data obtained by this method is averaged, and statistical analysis is conducted using JMP statistical software available from the SAS Institute at the […] confidence level. […] However, given similar straightening efficacy the dialdehyde compounds described herein have advantages over glutaraldehyde due to the lower cost of materials and increased safety profile.

Row | SMILES | Straightening efficacy Mean grade
1 | O=CCCCC=O [Glutaraldehyde, glutaraldehyde] | 5.00
2 | O=CC(O)CO (stereo not drawn) [Glyceraldehyde] | 2.67
3 | O=CC(O)C(O)C(O)C=O (stereo not drawn) [Pentodialdose, pentodialdose] | 5.33
